Peptide text beside a SMILES is read from it. * marks the point of attachment. Cbz = O=C(OCc1ccccc1)*; CH2F = FC*
Tests used:
[1] = tested on: cell-free eukaryotic translation system on the basis of a cell extract from Spodoptera frugiperda (Sf21) insect cells; experiment: Cell-free synthesis of SII-eYFP, protein yield by 14C-leucine incorporation (hot TCA precipitation, scintillation); assay type: biochemical; conditions: −V, +CI
Description: The influence of the caspase inhibitor on the maximum achievable protein yield was initially investigated on the basis of the expression of the cytosolic protein SII-eYFP. This model protein is the enhanced yellow fluorescent protein (eYFP) which was fused at the N-terminus with an affinity tag (Strep-Tag, SII-Tag) and was present in the vector pIX3.0 (Qiagen). The expression of the model protein was analyzed in the batch system and the dialysis system (50 μl reaction chamber; 1000 μl feeding chamber; cut-off of the membrane=10 kDa) over a period of 48 h. The translation mixtures were each incubated in the batch system and the dialysis system with (+) and without (−) insect cell vesicles (V) and with (+) and without (−) caspase inhibitor (CI) (at 27° C. and 600 rpm). The protein synthesis was carried out in the presence of the radioactively labeled amino acid ^14C-leucine in order to be able to determine the quantity of de novo synthesized target protein by means of hot TCA precipitation and scintillation measurement. The translation reactions were interrupted at particular time points (0 h, 2 h, 4 h, 24 h and 48 h) and analyzed as follows: 5 μl of the mixture was precipitated in hot TCA or ice-cold acetone in each case. A further 5 μl was resuspended in 25 μl PBS. The remaining sample volume was separated by means of a centrifuging step into the supernatant fluid (SN) and the vesicular fraction (VF). Aliquots of 5 μl of these fractions were diluted in 25 μl PBS each. Following the TCA precipitation, the samples were separated from free radioactive amino acids via a vacuum-driven filtration system and underwent a scintillation measurement. After drying, the proteins precipitated in acetone were collected in a reducing sample buffer and separated electrophoretically.

[2] = tested on: cell-free eukaryotic translation system on the basis of a cell extract from Spodoptera frugiperda (Sf21) insect cells; experiment: Cell-free expression of Mel-Hb-EGF-eYFP, protein quantity in translation mixture and vesicular fraction; assay type: biochemical
Description: The three proteins were each expressed in the batch and dialysis systems without (−) and with (+) the addition of the caspase inhibitor (CI) in the presence of ^14C-leucine for 48 h (27° C.; 600 rpm, Eppendorf Thermomixer Comfort) and analyzed as in example 1. […] The expression of each of the three membrane proteins (ETB, 49.3 kDa; Hb-EGF, 51 kDa; bacteriorhodopsin, 26.9 kDa) was able to be increased in the dialysis system (comparison of the dialysis batches +CI and −CI) with the addition of the caspase inhibitor by approximately 100% (FIG. 2).
Here, the intention was to investigate whether the increase in the total protein quantity is also associated with an increase in the quantity of membrane protein translocated and integrated into the lipid layer of the vesicles. For this purpose, the translation mixtures of Mel-Hg-EGF-eYFP were separated by means of a centrifuging step into the supernatant fluid (SN) and the vesicular fraction (VF). Aliquots (5 μl) of these samples were used for determining the quantity of de novo synthesized protein or were investigated with regard to their fluorescence properties (FIG. 4).
FIG. 4A: The synthesis of Mel-Hb-EGF-eYFP was carried out in the batch (left) and dialysis system (right) in the absence (−) and in the presence (+) of DTT with the addition of the caspase inhibitor (Z-VAD-FMK) over 48 h at 27° C. and 600 rpm. Following the synthesis, the mixtures were separated by means of a centrifuging step into the supernatant fluid (SN) and the vesicular fraction (VF). For analysis of the fluorescence intensity of the samples, aliquots of the fractions (5 μl) were each diluted in 25 μl PBS and 25 μl of this mixture was pipetted to each cavity of the Ibidi slide and measured. Excitation of the samples was carried out at 488 nm with a phosphorimager (Typhoon TRIO+ Imager, GE Healthcare) and the emission measured at 526 nm.

COC(=O)C[C@H](NC(=O)[C@H](C)NC(=O)[C@@H](NC(=O)OCc1ccccc1)C(C)C)C(=O)CF [Z-VAD-FMK, benzyloxycarbonyl-Val-Ala-Asp-[O-methyl]-fluoromethylketone] (Cbz-Val-Ala-Asp(OMe)-CH2F)
protein yield of SII-eYFP ([1]; batch system after 48 h): 17.3 µg/mL
protein yield of SII-eYFP ([1]; dialysis system after 48 h): 90.8 µg/mL
increase of the maximum protein yield of SII-eYFP ([1]; dialysis system vs batch system, 48 h): approximately 400%
total protein quantity of Mel-Hb-EGF-eYFP ([2]; batch 48 h +CI): 12.1 µg/mL
Mel-Hb-EGF-eYFP in the vesicular fraction of the lysate ([2]; batch 48 h −DTT +CI): 6.5 µg/mL
total protein quantity of Mel-Hb-EGF-eYFP ([2]; dialysis 48 h +CI): 47.6 µg/mL
increase in total protein quantity of Mel-Hb-EGF-eYFP ([2]; dialysis 48 h +CI vs batch 48 h +CI): 300%
increase in total protein quantity of Mel-Hb-EGF-eYFP ([2]; dialysis 48 h +CI vs dialysis 48 h −CI): 130%
Mel-Hb-EGF-eYFP in the vesicular fraction of the lysate ([2]; dialysis 48 h −DTT +CI): 31.4 µg/mL

— patent publication US9951366B2, “Cell-free protein synthesis method and device using a eukaryotic cell lysate in the presence of a caspase inhibitor and the use of a caspase inhibitor for increasing the yield and/or the stability of the synthesized proteins in such a method” (Fraunhofer-Gesellschaft zur Foerderung der angewandten …, priority 2013, dated 2018)
